Laboratory results published in US9073918B2, “Pyrazolo[4,3-b]pyridine-7-amine inhibitors of ALK5” (Takeda Pharmaceutical Company Limited, priority 2010, dated 2015).

Experiments:
TGF-β R1 ALK5 = molecular target: T1, TGF-β R1 ALK5 (Homo sapiens, UniProt P36897); assay: In vitro inhibition of ALK5 (LanthaScreen activity assay, TR-FRET); type: biochemical
T1 construct: purchased Invitrogen PV5837
T1 sequence (P36897 34-503): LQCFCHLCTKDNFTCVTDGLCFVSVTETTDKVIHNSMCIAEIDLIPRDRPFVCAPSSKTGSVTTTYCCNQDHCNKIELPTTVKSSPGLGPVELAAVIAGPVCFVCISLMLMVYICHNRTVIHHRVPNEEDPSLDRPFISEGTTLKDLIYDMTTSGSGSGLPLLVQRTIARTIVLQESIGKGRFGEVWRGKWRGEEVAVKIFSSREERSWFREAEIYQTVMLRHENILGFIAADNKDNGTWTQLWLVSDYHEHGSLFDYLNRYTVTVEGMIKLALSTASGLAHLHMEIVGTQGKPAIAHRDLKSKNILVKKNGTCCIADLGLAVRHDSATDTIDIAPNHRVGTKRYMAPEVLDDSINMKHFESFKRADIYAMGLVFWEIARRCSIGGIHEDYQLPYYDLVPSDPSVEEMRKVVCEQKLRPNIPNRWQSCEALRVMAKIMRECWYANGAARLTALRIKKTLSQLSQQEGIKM

cellular TGF-β R1 ALK5 = molecular target: T2, cellular TGF-β R1 ALK5 (Homo sapiens, UniProt P36897); assay: Cellular inhibition of ALK5 (CellSensor SBE-bla HEK 293T beta-lactamase reporter); type: cell-based; details: cellular inhibition of ALK5, SBE-bla HEK 293T cells, TGFb-1 stimulated 5 hours; average where measured in multiple experiments
T2 construct: host or cells: CellSensor SBE-bla HEK 293T
T2 sequence (P36897 34-503): T1 sequence (P36897 34-503)
Method in brief: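 pIC50 derives from non-linear fitting of percent inhibition of the 460/530 nm CCF4-AM emission ratio, relative to DMSO+TGF-β wells. HEK 293T SBE-bla cells received compound (0.5% DMSO) for 1 h, TGFb-1 (100 ng/mL stock) for 5 h at 37 °C, then substrate 2 h at RT.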

Work on `Cc1ccc(F)c(-c2cc(Nc3c(F)cnc4cn(CC(C)(C)O)nc34)c(C)cn2)n1` [Example 99, 1-(6-fluoro-7-(3′-fluoro-5,6′-dimethyl-2,2′-bipyridin-4-ylamino)-2H-pyrazolo[4,3-b]pyridin-2-yl)-2-methylpropan-2-ol] yielded an IC50 (TGF-β R1 ALK5) of 501 nM and an IC50 (cellular TGF-β R1 ALK5) of 1260 nM.

Work on `Cc1ccc(F)c(-c2cc(Nc3c(F)cnc4cn(C[C@H](C)O)nc34)ccn2)n1` [Example 100A, (S)-1-(6-fluoro-7-(3′-fluoro-6′-methyl-2,2′-bipyridin-4-ylamino)-2H-pyrazolo[4,3-b]pyridin-2-yl)propan-2-ol] yielded an IC50 (TGF-β R1 ALK5) of 398 nM and an IC50 (cellular TGF-β R1 ALK5) of 1260 nM.

For `Cc1ccc(F)c(-c2cc(Nc3c(F)cnc4cnn(C[C@H](C)O)c34)ccn2)n1` [Example 100B, (S)-1-(6-fluoro-7-(3′-fluoro-6′-methyl-2,2′-bipyridin-4-ylamino)-1H-pyrazolo[4,3-b]pyridin-1-yl)propan-2-ol], the IC50 (TGF-β R1 ALK5) was 63.1 nM and the IC50 (cellular TGF-β R1 ALK5) was 251 nM.

With `Cc1ccc(F)c(-c2cc(Nc3ccnc4cnn(CCF)c34)ccn2)n1` [Example 101, N-(3′-fluoro-6′-methyl-2,2′-bipyridin-4-yl)-1-(2-fluoroethyl)-1H-pyrazolo[4,3-b]pyridin-7-amine] the IC50 (TGF-β R1 ALK5) was 25.1 nM and the IC50 (cellular TGF-β R1 ALK5) was 100 nM.

`Cc1ccc(F)c(-c2cc(Nc3ccnc4cn(CCF)nc34)ccn2)n1` [Example 102, N-(3′-fluoro-6′-methyl-2,2′-bipyridin-4-yl)-2-(2-fluoroethyl)-2H-pyrazolo[4,3-b]pyridin-7-amine] was tested, and the IC50 (TGF-β R1 ALK5) was 15.8 nM and the IC50 (cellular TGF-β R1 ALK5) was 50.1 nM.

Compound `Cc1ccc(F)c(-c2cc(Nc3ccnc4cn(CC(F)F)nc34)ccn2)n1` [Example 104, 2-(2,2-difluoroethyl)-N-(3′-fluoro-6′-methyl-2,2′-bipyridin-4-yl)-2H-pyrazolo[4,3-b]pyridin-7-amine] has an IC50 (TGF-β R1 ALK5) of 79.4 nM and an IC50 (cellular TGF-β R1 ALK5) of 316 nM.

Work on `Cc1ccc(F)c(-c2cc(Nc3ccnc4cnn(CC(F)F)c34)ccn2)n1` [Example 105, 1-(2,2-difluoroethyl)-N-(3′-fluoro-6′-methyl-2,2′-bipyridin-4-yl)-1H-pyrazolo[4,3-b]pyridin-7-amine] yielded an IC50 (TGF-β R1 ALK5) of 20 nM and an IC50 (cellular TGF-β R1 ALK5) of 39.8 nM.

In the case of `Cc1ccc(F)c(-c2cc(Nc3ccnc4cnn(C[C@H](C)O)c34)ccn2)n1` [Example 106, (S)-1-(7-(3′-fluoro-6′-methyl-2,2′-bipyridin-4-ylamino)-1H-pyrazolo[4,3-b]pyridin-1-yl)propan-2-ol], the IC50 (TGF-β R1 ALK5) is reported as 126 nM and the IC50 (cellular TGF-β R1 ALK5) is reported as 1260 nM.

In the case of `Cc1ccc(F)c(-c2cc(Nc3ccnc4cn(C[C@H](C)O)nc34)ccn2)n1` [Example 107, (S)-1-(7-(3′-fluoro-6′-methyl-2,2′-bipyridin-4-ylamino)-2H-pyrazolo[4,3-b]pyridin-2-yl)propan-2-ol], the IC50 (TGF-β R1 ALK5) is reported as 6.31 nM and the IC50 (cellular TGF-β R1 ALK5) is reported as 39.8 nM.

With `Cc1cnc(-c2cc(F)ccc2F)cc1Nc1ccnc2cn[nH]c12` [Example 108, N-(2-(2,5-difluorophenyl)-5-methylpyridin-4-yl)-1H-pyrazolo[4,3-b]pyridin-7-amine] the IC50 (TGF-β R1 ALK5) was 1 nM and the IC50 (cellular TGF-β R1 ALK5) was 7.94 nM.

For `CCNC(=O)n1ncc2nccc(Nc3cc(-c4cc(F)ccc4F)ncc3C)c21` [Example 109, 7-(2-(2,5-difluorophenyl)-5-methylpyridin-4-ylamino)-N-ethyl-1H-pyrazolo[4,3-b]pyridine-1-carboxamide], the IC50 (TGF-β R1 ALK5) was 1.58 nM and the IC50 (cellular TGF-β R1 ALK5) was 20 nM.

For `Cc1cnc(-c2cc(F)ccc2F)cc1Nc1ccnc2cnn(C(=O)NC(C)C)c12` [Example 110, 7-(2-(2,5-difluorophenyl)-5-methylpyridin-4-ylamino)-N-isopropyl-1H-pyrazolo[4,3-b]pyridine-1-carboxamide], the IC50 (TGF-β R1 ALK5) was 5.01 nM and the IC50 (cellular TGF-β R1 ALK5) was 158 nM.

`CNC(=O)Cn1cc2nccc(Nc3ccnc(-c4nc(C)ccc4F)c3)c2n1` [Example 111, 2-(7-(3′-fluoro-6′-methyl-2,2′-bipyridin-4-ylamino)-2H-pyrazolo[4,3-b]pyridin-2-yl)-N-methylacetamide] gave an IC50 (TGF-β R1 ALK5) of 501 nM and an IC50 (cellular TGF-β R1 ALK5) of 12600 nM.
